By IC50 is commonly meant the concentration that gives 50% inhibition.

In experiment [1] the test system is P. falciparum 3D7-infected erythrocytes. Put plainly: Plasmodium falciparum growth inhibition assay (SYBR Green I, flow cytometry), drug-sensitive strain. It counts as cell-based. On the procedure: (§1) Plates were incubated under standard P. falciparum culture conditions for 48 h. […] Fixed parasitized red blood cells (RBC) were stored at 4 °C in the dark until flow cytometry analysis. Parasite growth was assessed by flow cytometry on a BD FACS Cantoll (BD Biosciences) or a Attune™ NxT Flow Cytometer (Invitrogen). Cell doublets were excluded from the analysis using a forward scatter (FSC)-width versus FSC-area dot plot. Infected and uninfected erythrocytes were gated on the basis of their FSC and side scatter (SSC) signals. Fluorescence analysis (Green fluorescence FITC) was performed using BD FACSDiva software (BD Biosciences) on a total of 200,000 acquired events. […] Fluorescence of non-infected RBC was adjusted to plot between 10° and 10^2. Results are expressed as the percentage of growth inhibition.
(§2) All IC50 values were calculated using log-linear interpolation (www.antimalarial-icestimator.net), with mean values (± SD) determined over at least two independent experiments.
In general terms: Flow cytometry measures light scatter and fluorescence of single cells or particles in a stream.

For experiment [2], the system named is multidrug-resistant P. falciparum line Dd2. Put plainly: Plasmodium falciparum growth inhibition assay (SYBR Green I, flow cytometry), multidrug-resistant line. To be noted: Plasmodium falciparum, DD2, 48 h, line resistant to CQ, PYR and mefloquine, mean ± SD, n ≥ 2, read-out: PfDd2 IC50. It counts as cell-based. On the procedure: as §1, §2
In experiment [3] the test system is P. berghei ANKA parasites. Put plainly: Peters 4-day suppressive test, oral efficacy in P. berghei-infected mice. It counts as in vivo, Plasmodium berghei. To be noted: Experiment 3. On the procedure: Compounds powder was dissolved in DMSO and sonicated for 10 min. Appropriate volume of 50%W/v HPβCD was added dropwise under gentle swirling. After 10 min sonication, DPBS was added dropwise under gentle swirling and the mixture was sonicated again for 10 min. After checking the pH (5.5 - 7), the solution was filtered (0.22µm) and conserved at room temperature for max 2 days. Final concentration of compounds was 2.5 mg/mL, 1 mg/mL or 0.1 mg/mL for mice treatment with 25 mg/kg, 10 mg/kg or 1mg/kg doses.
10 weeks-old Balb/C male mice were purchased from Janvier Labs.
P. berghei ANKA parasites stabilates conserved in liquid nitrogen were thawed and injected intraperitoneally (ip) into 2-3 mice (10^6 infected red blood cells (RBC) / mouse). When parasitemia reached 3-5%, mice were bled and groups of six BALB/c male mice were infected with 10^6 P. berghei ANKA parasites (day 0), and treated per os (p.o.) twice a day on days 0, 1, 2 and 3. […] On day 4 post infection (p.i.), the peripheral blood parasitemia of all mice was evaluated via microscopic examination of Giemsa-stained thin blood smears. Parasitemia was then followed for two weeks.

Where [4] appears, read: Plasmodium falciparum, 3D7, Erythrocyte, 48 h incubation, mean ± SD, n ≥ 2, read-out: Pf3D7 IC50.
[5] abbreviates: Plasmodium falciparum, 3D7, Erythrocyte, 48 h incubation, read-out: IC50 (Pf3D7).
Setting [6] is: Plasmodium falciparum, 3D7, Erythrocyte, 48 h, read-out: Pf3D7 IC50.
Where [7] appears, read: Balb/C mice, 1 mg/kg p.o. twice a day on days 0-3, day 5 p.i.
The mark [8] stands for this setting: Balb/C mice, 1 mg/kg p.o. twice a day on days 0-3, day 6 p.i.
Where [9] appears, read: Balb/C mice, 1 mg/kg p.o. twice a day on days 0-3, day 7 p.i.
The mark [10] stands for this setting: Balb/C mice, 1 mg/kg p.o. twice a day on days 0-3, day 8 p.i.
Setting [11] is: Balb/C mice, 1 mg/kg p.o. twice a day on days 0-3, day 10 p.i.

Counter-ions that a name gives are not always drawn. Like-named read-outs stand apart in the source and are kept apart here. Where only a bound is given, the exact number is not on record here.

`CCc1nc(N)nc(N)c1OCCCCOc1ccccc1CCC(=O)NO` [3·HCl, 3-(2-[4-(2,4-Diamino-6-ethylpyrimidin-5-yloxy)butoxy]phenyl)-N-hydroxypropanamide hydrochloride]: in experiment [1] (setting [4]), the IC50 is 0.451 ± 0.088 nM.

`CCc1nc(N)nc(N)c1OCCCOc1cc(OC)ccc1CCC(=O)NO` [4·HCl, 3-(2-[3-(2,4-Diamino-6-ethylpyrimidin-5-yloxy)propoxy]-4-methoxyphenyl)-N-hydroxypropanamide hydrochloride]: the IC50 in experiment [2] was 6.2 ± 0.5 nM; in experiment [1] (setting [4]), 0.173 ± 0.122 nM; in experiment [1] (setting [5]) it was below 0.2 nM.

As to `CCc1nc(N)nc(N)c1OCCCOc1cc(Cl)ccc1CCC(=O)NO` [5·HCl, 3-(4-Chloro-2-[3-(2,4-diamino-6-ethylpyrimidin-5-yloxy)propoxy]phenyi)-N-hydroxypropanamide hydrochloride], the IC50 in experiment [1] (setting [6]) worked out at 0.279 ± 0.154 nM.

Turning to `CCc1nc(N)nc(N)c1OCCCOc1cc(OC)ccc1/C=C/C(=O)NO` [14·HCl, (E)-3-{2-[3-(2,4-Diamino-6-ethylpyrimidin-5-yloxy)propoxy]-4-methoxyphenyl}-N-hydroxyacrylamide hydrochloride], the figures for the IC50 in experiment [1] (setting [4]) and in experiment [1] (setting [5]) were 0.088 ± 0.02 nM and below 0.1 nM, respectively.

For `CCc1nc(N)nc(N)c1OCCOc1cccc(/C=C/C(=O)NO)c1` [18·HCl, (E)-3-(3-[2-(2,4-Diamino-6-ethylpyrimidin-5-yloxy)ethoxy]phenyl)-N-hydroxyacrylamide hydrochloride], the IC50 in experiment [1] (setting [4]) worked out at 0.249 ± 0.015 nM.

In the case of `CCc1nc(N)nc(N)c1OCCCOc1cccc(/C=C/C(=O)NO)c1` [19·HCl, (E)-3-{3-[3-(2,4-Diamino-6-ethylpyrimidin-5-yloxy)propoxy]phenyl}-N-hydroxyacrylamide hydrochloride], the IC50 in experiment [2] was 41.5 ± 11.9 nM; in experiment [1] (setting [4]), 0.173 ± 0.021 nM; in experiment [1] (setting [5]) it was below 0.2 nM.

With `CCc1nc(N)nc(N)c1OCCCOc1ccc(/C=C/C(=O)NO)cc1` [20·HCl, (E)-3-{4-[3-(2,4-Diamino-6-ethylpyrimidin-5-yloxy)propoxy]phenyl}-N-hydroxyacrylamide hydrochloride], the IC50 in experiment [1] (setting [4]) was 0.117 ± 0.045 nM; in experiment [1] (setting [5]), below 0.2 nM.

In the case of `CCN(CC)CCCC(C)Nc1ccnc2cc(Cl)ccc12` (stereo not drawn) [CQ, chloroquine, reference compound], the “parasitemia (mean ± sd)” value in experiment [3] (positive control, 10 mg/kg p.o. once a day for 4 days, day 4 p.i.) is given as 0%; in experiment [3] (positive control, 10 mg/kg p.o. once a day for 4 days, day 5 p.i.), 0%; in experiment [3] (positive control, 10 mg/kg p.o. once a day for 4 days, day 6 p.i.) it was 0%; in experiment [3] (positive control, 10 mg/kg p.o. once a day for 4 days, day 7 p.i.) it was 0%; in experiment [3] (positive control, 10 mg/kg p.o. once a day for 4 days, day 8 p.i.), 0%; in experiment [3] (positive control, 10 mg/kg p.o. once a day for 4 days, day 10 p.i.) it was 0%. Besides, the IC50 in experiment [1] (setting [6]) turned out to be 4.7 ± 1.7 nM.

Turning to `CCc1nc(N)nc(N)c1OCCCOc1ccccc1CCC(=O)NOCc1ccccc1` [Compound 7, N-(Benzyloxy)-3-(2-(3-(2,4-diamino-6-ethylpyrimidin-5-yloxy)propoxy)phenyl)propanamide], in experiment [1] (setting [4]), the IC50 amounted to 0.497 ± 0.055 nM.

For the compound `CCc1nc(N)nc(N)c1OCCCOc1cc(C(=O)NO)ccc1Cl` [Compound 9, 4-Chloro-3-[3-(2,4-diamino-6-ethylpyrimidin-5-yloxy)propoxy]-N-hydroxybenzamide], the IC50 is 16.9 ± 3.2 nM in experiment [2], 0.172 ± 0.027 nM in experiment [1] (setting [4]) and below 0.2 nM in experiment [1] (setting [5]).

Consider `CCc1nc(N)nc(N)c1OCCCOc1cc(C(=O)NO)ccc1F` [Compound 10, 3-(3-[2,4-Diamino-6-ethylpyrimidin-5-yloxy)propoxy]-4-fluoro-N-hydroxybenzamide], for which, in experiment [1] (setting [4]), the IC50 turned out to be 0.39 ± 0.012 nM.

Turning to `CCc1nc(N)nc(N)c1OCCCOc1cccc(C(=O)NOCc2ccc(OC(C)=O)cc2)c1` [Compound 11, N-(4-Acetoxybenzyloxy)-3-[3-(2,4-diamino-6-ethylpyrimidin-5-yloxy)propoxy]benzamide], in experiment [3] (1 mg/kg p.o. twice a day on days 0-3), the “ranking of activity against P. berghei infection” value was “most active”. Also, the IC50 is 1.02 ± 0.68 nM in experiment [1] (setting [4]) and below 0.2 nM in experiment [1] (setting [5]).

As to `CCc1nc(N)nc(N)c1OCCCOc1cc(Cl)ccc1/C=C/C(=O)NO` [Compound 15, (E)-3-{4-Chloro-2-[3-(2,4-diamino-6-ethylpyrimidin-5-yloxy)propoxy]phenyl}-N-hydroxyacrylamide], the IC50 was 4 ± 0.4 nM in experiment [2], 0.082 ± 0.007 nM in experiment [1] (setting [4]) and below 0.1 nM in experiment [1] (setting [5]).

As to `CCc1nc(N)nc(N)c1OCCCOc1ccccc1/C=C/C(=O)NOCc1ccc(OC(C)=O)cc1` [Compound 16, (E)-N-(4-Acetoxybenzyloxy)-3-{2-[3-(2,4-diamino-6-ethylpyrimidin-5-yloxy)propoxy]phenyl}acrylamide], the “number of mice showing blood parasites” value in experiment [3] (Balb/C mice, 1 mg/kg p.o. twice a day on days 0-3, day 4 p.i.) is listed as 1/5; in experiment [3] (setting [7]), 2/5; in experiment [3] (setting [8]), 3/5; in experiment [3] (setting [9]), 3/5; in experiment [3] (setting [10]) it was 5/5; in experiment [3] (setting [11]), 5/5. Also, the “parasitemia (mean ± sd)” value in experiment [3] (Balb/C mice, 1 mg/kg p.o. twice a day on days 0-3, day 4 p.i., 1 mg/kg) is 0,02 ± 0,04%; in experiment [3] (setting [7]) it was 0,48 ± 0,72%; in experiment [3] (setting [8]), 2,22 ± 2,44%; in experiment [3] (setting [9]) it was 5,21 ± 7,86%; in experiment [3] (setting [10]) it was 5,33 ± 5,64%; in experiment [3] (setting [11]), 9,25 ± 7,38%. Also, the IC50 is 0.067 ± 0.005 nM in experiment [1] (setting [4]) and below 0.1 nM in experiment [1] (setting [5]).

`CCc1nc(N)nc(N)c1OCCCOc1ccccc1/C=C/C(=O)NOCc1ccccc1` [Compound 17, (E)-N-(Benzyloxy)-3-{2-[3-(2,4-diamino-6-ethylpyrimidin-5-yloxy)propoxy]phenyl}acrylamide]: the concentration for half-maximal inhibition (IC50) in experiment [1] (setting [4]) was found to be 0.331 ± 0.124 nM.

With `CCc1nc(N)nc(N)c1OCCCOc1cccc(COc2cccc(/C=C/C(=O)NO)c2)c1` [Compound 21, (E)-3-(3-(3-[3-(2,4-Diamino-6-ethylpyrimidin-5-yloxy)propoxy]benzyloxy)phenyl)-N-hydroxyacrylamide hydrochloride], the IC50 in experiment [1] (setting [4]) stood at 0.347 ± 0.047 nM.

On to `CCc1nc(N)nc(N)c1OCCCOc1cccc(C(=O)NCCCCCCC(=O)NO)c1` [Compound 30, 3-{3-[(2,4-Diamino-6-ethylpyrimidin-5-yl)oxy]propoxy}-N-[7-(hydroxyamino)-7-oxoheptyl]benzamide], for which the IC50 in experiment [1] (setting [4]) was found to be 0.876 ± 0.018 nM.

Consider `CCc1nc(N)nc(N)c1OCCCOc1ccc(C(=O)NCCCCCCC(=O)NO)cc1` [Compound 31, 4-{3-[(2,4-Diamino-6-ethylpyrimidin-5-yl)oxy]propoxy}-N-[7-(hydroxyamino)-7-oxoheptyl]benzamide], for which the results for the concentration for half-maximal inhibition (IC50) in experiment [2] and in experiment [1] (setting [4]) were 22.8 ± 2.6 nM and 0.404 ± 0.136 nM, respectively.

Turning to “N-(4-Acetoxybenzyloxy)-3-(2-(3-(2,4-diamino-6-ethylpyrimidin-5-yloxy)propoxy)phenyl)propenamide [Compound 6]”, in experiment [1] (48 h incubation, mean ± SD, n ≥ 2, read-out: Pf3D7 IC50), the IC50 came to 0.169 ± 0.041 nM.

Source of the values: patent EP4438596A1, “DIAMINOPYRIMIDINE DERIVATIVES AS HDAC AND DHFR DUAL-TARGETING INHIBITORS AND USE THEREOF IN PREVENTING AND TREATING MALARIA” (Université de Lille, priority 2023, dated 2024).
